{"source": "paper PMC7734625", "about": "“Stabilization Strategies for Linear Minigastrin Analogues: Further Improvements via the Inclusion of Proline into the Peptide Sequence” (Journal of Medicinal Chemistry, 2020)", "experiment": "biodistribution in A431-CCK2R/A431-mock xenografted BALB/c nude mice", "format": "in vivo", "details": "female, athymic BALB/c nude, mouse, iv, total radioactivity; for tissue to tissue ratio at 4 h / tissue uptake at 4 h: 4 h p.i.; for tissue uptake at 12 h / tissue to tissue ratio at 12 h: 12 h p.i.", "description": "Biodistribution studies evaluating the tumor uptake of the radiolabeled peptides were performed in 7- to 9-week-old female athymic BALB/c nude mice (Charles River, Sulzfeld, Germany). For the induction of tumor xenografts, 150 μL of DMEM containing 2 × 10^6 A431-CCK2R and A431-mock cells were injected subcutaneously in the right and left flank of each mouse, respectively. And 10–14 days after injection, tumors reached a medium weight of ∼0.25 g. The mice were divided into groups of four and injected intravenously via a lateral tail vein with 0.2 MBq of ^111In-labeled compound (0.02 nmol) and 0.7 and 1.5 MBq of the ^177Lu-labeled compound (0.02 and 0.15 nmol). At 4 and 12 h p.i., the mice were sacrificed and the tumors and other tissues (blood, lung, heart, muscle, spleen, intestine, liver, kidneys, stomach, and pancreas) were removed, weighed, and their radioactivity measured in the γ counter together with the rest of the body. Initial biodistribution studies were performed with the three ^177Lu-labeled CCK2R-targeting ligands at an injected peptide amount of 20 pmol for the time point of 4 h p.i. From these studies, two peptide analogues were selected to further characterize the biodistribution profile also at a later time point of 12 h p.i. and at a higher injected peptide amount of 150 pmol. Additional animal studies were performed for the ^111In-labeled conjugates. Percentage of injected activity per gram tissue (%IA/g), tumor-to-organ activity ratios, as well as whole body activity were calculated for each sample and statistical analysis using independent two-population t-test (significance level p < 0.05) was performed using Origin software. For the comparison of more than two groups, data were analyzed using one-way analysis of variance (ANOVA) Holm–Bonferroni-adjusted post hoc analysis (significance level p < 0.05) using Microsoft Excel 2010 software (Microsoft Excel 2010, Microsoft Corporation, WA).", "key": {"[1]": {"details": "A431-CCK2R xenograft tumor, 20 pmol, 20 pmol, read-out: tumor uptake in A431-CCK2R xenografts"}, "[2]": {"details": "A431-mock xenograft tumor, 20 pmol, 20 pmol, read-out: uptake in A431-mock xenografts"}, "[3]": {"details": "blood, 20 pmol, 20 pmol, read-out: uptake in blood"}, "[4]": {"details": "heart, 20 pmol, 20 pmol, read-out: uptake in heart"}, "[5]": {"details": "intestine, 20 pmol, 20 pmol, read-out: uptake in intestine"}, "[6]": {"details": "kidney, 20 pmol, 20 pmol, read-out: uptake in kidney"}, "[7]": {"details": "liver, 20 pmol, 20 pmol, read-out: uptake in liver"}, "[8]": {"details": "lung, 20 pmol, 20 pmol, read-out: uptake in lung"}, "[9]": {"details": "muscle, 20 pmol, 20 pmol, read-out: uptake in muscle"}, "[10]": {"details": "pancreas, 20 pmol, 20 pmol, read-out: uptake in pancreas"}, "[11]": {"details": "spleen, 20 pmol, 20 pmol, read-out: uptake in spleen"}, "[12]": {"details": "stomach, 20 pmol, 20 pmol, read-out: uptake in stomach"}}, "note": "Like-named read-outs stand apart in the source and are kept apart here. Non-standard residues stand in square brackets, D forms with d. Residues, ends and D or L forms follow the SMILES beside them. *: point of attachment. DOTA = O=C(O)CN1CCN(CC(=O)O)CCN(CC(=O)*)CCN(CC(=O)O)CC1; 1Nal = N[C@@H](Cc1cccc2ccccc12)C(=O)O; NMeNle = CCCC[C@H](NC)C(=O)O", "data": [{"smiles": "CCCC[C@@H](C(=O)N[C@@H](CC(=O)O)C(=O)N[C@@H](Cc1cccc2ccccc12)C(N)=O)N(C)C(=O)[C@H](Cc1c[nH]c2ccccc12)NC(=O)CNC(=O)[C@@H]1CCCN1C(=O)[C@H](Cc1ccc(O)cc1)NC(=O)[C@@H](CCC(=O)O)NC(=O)CN1CCN(CC(=O)O)CCN(CC(=O)O)CCN(CC(=O)O)CC1", "note": "[[^177Lu]Lu-2, metal not drawn] ({DOTA}-[dE]YPGW[NMeNle]D[1Nal]-NH2)", "values": [{"measurement": "tissue to tissue ratio at 4 h", "setting": "A431-CCK2R xenograft tumor / blood, 20 pmol, 20 pmol, read-out: tumor-to-blood ratio", "result": "429 ± 134"}, {"measurement": "tissue to tissue ratio at 4 h", "setting": "A431-CCK2R xenograft tumor / kidney, 20 pmol, 20 pmol, read-out: tumor-to-kidney ratio", "result": "6.51 ± 2.29"}, {"measurement": "tissue to tissue ratio at 4 h", "setting": "A431-CCK2R xenograft tumor / liver, 20 pmol, 20 pmol, read-out: tumor-to-liver ratio", "result": "80.6 ± 26.5"}, {"measurement": "tissue to tissue ratio at 4 h", "setting": "A431-CCK2R xenograft tumor / stomach, 20 pmol, 20 pmol, read-out: tumor-to-stomach ratio", "result": "7.31 ± 1.84"}, {"measurement": "tissue uptake at 4 h", "setting": "[1]", "result": "33.2 ± 6.34", "unit": "%ID/g"}, {"measurement": "tissue uptake at 12 h", "setting": "[1]", "result": "25 ± 4.92", "unit": "%ID/g"}, {"measurement": "tissue uptake at 4 h", "setting": "A431-CCK2R xenograft tumor, 150 pmol, 150 pmol, read-out: tumor uptake in A431-CCK2R xenografts", "result": "17.2 ± 5.98", "unit": "%ID/g"}, {"measurement": "tissue uptake at 4 h", "setting": "[2]", "result": "0.25 ± 0.06", "unit": "%ID/g"}, {"measurement": "tissue uptake at 12 h", "setting": "[2]", "result": "0.15 ± 0.03", "unit": "%ID/g"}, {"measurement": "tissue uptake at 4 h", "setting": "A431-mock xenograft tumor, 150 pmol, 150 pmol, read-out: uptake in A431-mock xenografts", "result": "0.33 ± 0.05", "unit": "%ID/g"}, {"measurement": "tissue uptake at 4 h", "setting": "[3]", "result": "0.08 ± 0.01", "unit": "%ID/g"}, {"measurement": "tissue uptake at 12 h", "setting": "[3]", "result": 0.01, "unit": "%ID/g"}, {"measurement": "tissue uptake at 4 h", "setting": "blood, 150 pmol, 150 pmol, read-out: uptake in blood", "result": "0.09 ± 0.01", "unit": "%ID/g"}, {"measurement": "tissue uptake at 4 h", "setting": "[4]", "result": "0.09 ± 0.01", "unit": "%ID/g"}, {"measurement": "tissue uptake at 12 h", "setting": "[4]", "result": "0.05 ± 0.01", "unit": "%ID/g"}, {"measurement": "tissue uptake at 4 h", "setting": "heart, 150 pmol, 150 pmol, read-out: uptake in heart", "result": "0.15 ± 0.05", "unit": "%ID/g"}, {"measurement": "tissue uptake at 4 h", "setting": "[5]", "result": "0.56 ± 0.1", "unit": "%ID/g"}, {"measurement": "tissue uptake at 12 h", "setting": "[5]", "result": "0.19 ± 0.02", "unit": "%ID/g"}, {"measurement": "tissue uptake at 4 h", "setting": "intestine, 150 pmol, 150 pmol, read-out: uptake in intestine", "result": "0.55 ± 0.08", "unit": "%ID/g"}, {"measurement": "tissue uptake at 4 h", "setting": "[6]", "result": "5.53 ± 1.51", "unit": "%ID/g"}, {"measurement": "tissue uptake at 12 h", "setting": "[6]", "result": "3.37 ± 0.17", "unit": "%ID/g"}, {"measurement": "tissue uptake at 4 h", "setting": "kidney, 150 pmol, 150 pmol, read-out: uptake in kidney", "result": "7.88 ± 1.26", "unit": "%ID/g"}, {"measurement": "tissue uptake at 4 h", "setting": "[7]", "result": "0.43 ± 0.08", "unit": "%ID/g"}, {"measurement": "tissue uptake at 12 h", "setting": "[7]", "result": "0.27 ± 0.03", "unit": "%ID/g"}, {"measurement": "tissue uptake at 4 h", "setting": "liver, 150 pmol, 150 pmol, read-out: uptake in liver", "result": "0.79 ± 0.19", "unit": "%ID/g"}, {"measurement": "tissue uptake at 4 h", "setting": "[8]", "result": "0.17 ± 0.01", "unit": "%ID/g"}, {"measurement": "tissue uptake at 12 h", "setting": "[8]", "result": "0.08 ± 0.01", "unit": "%ID/g"}, {"measurement": "tissue uptake at 4 h", "setting": "lung, 150 pmol, 150 pmol, read-out: uptake in lung", "result": "0.25 ± 0.04", "unit": "%ID/g"}, {"measurement": "tissue uptake at 4 h", "setting": "[9]", "result": "0.06 ± 0.03", "unit": "%ID/g"}, {"measurement": "tissue uptake at 12 h", "setting": "[9]", "result": 0.02, "unit": "%ID/g"}, {"measurement": "tissue uptake at 4 h", "setting": "muscle, 150 pmol, 150 pmol, read-out: uptake in muscle", "result": "0.1 ± 0.09", "unit": "%ID/g"}, {"measurement": "tissue uptake at 4 h", "setting": "[10]", "result": "1.21 ± 0.49", "unit": "%ID/g"}, {"measurement": "tissue uptake at 12 h", "setting": "[10]", "result": "0.82 ± 0.06", "unit": "%ID/g"}, {"measurement": "tissue uptake at 4 h", "setting": "pancreas, 150 pmol, 150 pmol, read-out: uptake in pancreas", "result": "0.73 ± 0.55", "unit": "%ID/g"}, {"measurement": "tissue uptake at 4 h", "setting": "[11]", "result": "0.16 ± 0.01", "unit": "%ID/g"}, {"measurement": "tissue uptake at 12 h", "setting": "[11]", "result": "0.13 ± 0.01", "unit": "%ID/g"}, {"measurement": "tissue uptake at 4 h", "setting": "spleen, 150 pmol, 150 pmol, read-out: uptake in spleen", "result": "0.28 ± 0.08", "unit": "%ID/g"}, {"measurement": "tissue uptake at 4 h", "setting": "[12]", "result": "4.68 ± 0.93", "unit": "%ID/g"}, {"measurement": "tissue uptake at 12 h", "setting": "[12]", "result": "4.12 ± 0.82", "unit": "%ID/g"}, {"measurement": "tissue uptake at 4 h", "setting": "stomach, 150 pmol, 150 pmol, read-out: uptake in stomach", "result": "1.02 ± 0.45", "unit": "%ID/g"}, {"measurement": "tissue to tissue ratio at 12 h", "setting": "tumor/blood, 20 pmol, 20 pmol, read-out: tumor-to-blood ratio", "result": "2000 ± 750"}, {"measurement": "tissue to tissue ratio at 4 h", "setting": "tumor/blood, 150 pmol, 150 pmol, read-out: tumor-to-blood ratio", "result": "188 ± 80"}, {"measurement": "tissue to tissue ratio at 12 h", "setting": "tumor/kidney, 20 pmol, 20 pmol, read-out: tumor-to-kidney ratio", "result": "7.41 ± 1.33"}, {"measurement": "tissue to tissue ratio at 4 h", "setting": "tumor/kidney, 150 pmol, 150 pmol, read-out: tumor-to-kidney ratio", "result": "2.23 ± 0.87"}, {"measurement": "tissue to tissue ratio at 12 h", "setting": "tumor/liver, 20 pmol, 20 pmol, read-out: tumor-to-liver ratio", "result": "131 ± 37"}, {"measurement": "tissue to tissue ratio at 4 h", "setting": "tumor/liver, 150 pmol, 150 pmol, read-out: tumor-to-liver ratio", "result": "22.8 ± 10"}, {"measurement": "tissue to tissue ratio at 12 h", "setting": "tumor/stomach, 20 pmol, 20 pmol, read-out: tumor-to-stomach ratio", "result": "6.15 ± 1.12"}, {"measurement": "tissue to tissue ratio at 4 h", "setting": "tumor/stomach, 150 pmol, 150 pmol, read-out: tumor-to-stomach ratio", "result": "12.7 ± 4.9"}]}]}
